Laboratory results taken from PMC8803738, “Impact of the mouse model and molar amount of injected ligand on the tissue distribution profile of PSMA radioligands” (European Journal of Nuclear Medicine and Molecular Imaging, 2021).

System: LNCaP tumor-bearing mice
Experiment: Biodistribution in LNCaP tumor-bearing mice
Conditions: for AUCTu(0→48 h)-to-AUCKi(0→48 h) ratio: LNCaP model (male mice); for AUCTu(0→48 h)-to-AUCKi(0→48 h) ratio / AUC0→48h, Kidneys / AUC0→48h, LNCaP tumor: average ± SE, non-decay-corrected
[1] = LNCaP model, 4 h p.i., 0.05 nmol
[2] = LNCaP model, 4 h p.i., 1.0 nmol
[3] = LNCaP model, 24 h p.i., 0.05 nmol
[4] = LNCaP model, 24 h p.i., 1.0 nmol
[5] = LNCaP model, 48 h p.i., 0.05 nmol
[6] = LNCaP model, 48 h p.i., 1.0 nmol

Structure (SMILES): CC(C)Cc1ccc(C(C)C(=O)NC(CCN)C(=O)NCCCCC(NC(=O)CN2CCN(CC(=O)O)CCN(CC(=O)O)CCN(CC(=O)O)CC2)C(=O)NCC2CCC(C(=O)NC(Cc3ccc4ccccc4c3)C(=O)NCCCCC(NC(=O)NC(CCC(=O)O)C(=O)O)C(=O)O)CC2)cc1 (centres unmarked) [[^177Lu]Lu-Ibu-DAB-PSMA, metal not drawn]
- AUCTu(0→48 h)-to-AUCKi(0→48 h) ratio (0.05 nmol): 0.89 ± 0.25
- AUCTu(0→48 h)-to-AUCKi(0→48 h) ratio (1.0 nmol): 1.2 ± 0.2
- AUC0→48h, Kidneys (LNCaP model, 0.05 nmol): 815 ± 103 % IA/g*h
- AUC0→48h, LNCaP tumor (LNCaP model, 0.05 nmol): 721 ± 115 % IA/g*h
- Increase of tumor-to-kidney AUC0→48 h ratio for high vs low molar amount of injected ligand (LNCaP model, 1.0 nmol vs 0.05 nmol): 1.3 fold
- AUC0→48h, Kidneys (LNCaP model, 1.0 nmol): 349 ± 21 % IA/g*h
- AUC0→48h, LNCaP tumor (LNCaP model, 1.0 nmol): 402 ± 38 % IA/g*h
- Tissue distribution, Blood [1]: 1.6 ± 0.3 % IA/g
- Tissue distribution, Bone [1]: 0.63 ± 0.33 % IA/g
- Tissue distribution, Heart [1]: 0.61 ± 0.13 % IA/g
- Tissue distribution, Intestines [1]: 0.33 ± 0.03 % IA/g
- Tissue distribution, Kidneys [1]: 58 ± 10 % IA/g
- Tissue distribution, LNCaP tumor [1]: 18 ± 3 % IA/g
- Tissue distribution, Liver [1]: 1.3 ± 0.1 % IA/g
- Tissue distribution, Lung [1]: 1.4 ± 0.2 % IA/g
- Tissue distribution, Muscle [1]: 1.5 ± 1.9 % IA/g
- Tissue distribution, Salivary glands [1]: 0.59 ± 0.14 % IA/g
- Tissue distribution, Spleen [1]: 1.5 ± 0.4 % IA/g
- Tissue distribution, Stomach [1]: 0.32 ± 0.06 % IA/g
- Tumor-to-blood ratio [1]: 12 ± 1
- Tumor-to-kidney ratio [1]: 0.32 ± 0.03
- Tumor-to-liver ratio [1]: 14 ± 1
- Tissue distribution, Blood [2]: 0.87 ± 0.29 % IA/g
- Tissue distribution, Bone [2]: 0.39 ± 0.17 % IA/g
- Tissue distribution, Heart [2]: 0.41 ± 0.11 % IA/g
- Tissue distribution, Intestines [2]: 0.23 ± 0.05 % IA/g
- Tissue distribution, Kidneys [2]: 16 ± 1 % IA/g
- Tissue distribution, LNCaP tumor [2]: 12 ± 2 % IA/g
- Tissue distribution, Liver [2]: 0.82 ± 0.09 % IA/g
- Tissue distribution, Lung [2]: 0.78 ± 0.19 % IA/g
- Tissue distribution, Muscle [2]: 0.22 ± 0.14 % IA/g
- Tissue distribution, Salivary glands [2]: 0.38 ± 0.08 % IA/g
- Tissue distribution, Spleen [2]: 0.45 ± 0.08 % IA/g
- Tissue distribution, Stomach [2]: 0.22 ± 0.06 % IA/g
- Tumor-to-blood ratio [2]: 15 ± 5
- Tumor-to-kidney ratio [2]: 0.71 ± 0.10
- Tumor-to-liver ratio [2]: 14 ± 1
- Tissue distribution, Blood [3]: 0.16 ± 0.03 % IA/g
- Tissue distribution, Bone [3]: < 0.10 % IA/g
- Tissue distribution, Heart [3]: 0.11 ± 0.02 % IA/g
- Tissue distribution, Intestines [3]: 0.10 ± 0.01 % IA/g
- Tissue distribution, Kidneys [3]: 5.9 ± 1.5 % IA/g
- Tissue distribution, LNCaP tumor [3]: 18 ± 7 % IA/g
- Tissue distribution, Liver [3]: 0.48 ± 0.08 % IA/g
- Tissue distribution, Lung [3]: 0.24 ± 0.03 % IA/g
- Tissue distribution, Muscle [3]: < 0.10 % IA/g
- Tissue distribution, Salivary glands [3]: 0.18 ± 0.03 % IA/g
- Tissue distribution, Spleen [3]: 0.35 ± 0.06 % IA/g
- Tissue distribution, Stomach [3]: 0.13 ± 0.04 % IA/g
- Tumor-to-blood ratio [3]: 116 ± 37
- Tumor-to-kidney ratio [3]: 3.2 ± 1.1
- Tumor-to-liver ratio [3]: 39 ± 13
- Tissue distribution, Blood [4]: 0.19 ± 0.03 % IA/g
- Tissue distribution, Bone [4]: 0.14 ± 0.03 % IA/g
- Tissue distribution, Heart [4]: 0.12 ± 0.02 % IA/g
- Tissue distribution, Intestines [4]: 0.12 ± 0.03 % IA/g
- Tissue distribution, Kidneys [4]: 6.8 ± 1.1 % IA/g
- Tissue distribution, LNCaP tumor [4]: 8.8 ± 2.2 % IA/g
- Tissue distribution, Liver [4]: 0.45 ± 0.07 % IA/g
- Tissue distribution, Lung [4]: 0.23 ± 0.03 % IA/g
- Tissue distribution, Muscle [4]: < 0.10 % IA/g
- Tissue distribution, Salivary glands [4]: 0.16 ± 0.02 % IA/g
- Tissue distribution, Spleen [4]: 0.21 ± 0.06 % IA/g
- Tissue distribution, Stomach [4]: 0.23 ± 0.10 % IA/g
- Tumor-to-blood ratio [4]: 46 ± 12
- Tumor-to-kidney ratio [4]: 1.3 ± 0.2
- Tumor-to-liver ratio [4]: 20 ± 3
- Tissue distribution, Blood [5]: 0.10 ± 0.02 % IA/g
- Tissue distribution, Bone [5]: < 0.10 % IA/g
- Tissue distribution, Heart [5]: < 0.10 % IA/g
- Tissue distribution, Intestines [5]: < 0.10 % IA/g
- Tissue distribution, Kidneys [5]: 2.0 ± 0.3 % IA/g
- Tissue distribution, LNCaP tumor [5]: 16 ± 5 % IA/g
- Tissue distribution, Liver [5]: 0.50 ± 0.10 % IA/g
- Tissue distribution, Lung [5]: 0.16 ± 0.04 % IA/g
- Tissue distribution, Muscle [5]: < 0.10 % IA/g
- Tissue distribution, Salivary glands [5]: 0.11 ± 0.01 % IA/g
- Tissue distribution, Spleen [5]: 0.31 ± 0.08 % IA/g
- Tissue distribution, Stomach [5]: < 0.10 % IA/g
- Tumor-to-blood ratio [5]: 155 ± 31
- Tumor-to-kidney ratio [5]: 7.7 ± 1.7
- Tumor-to-liver ratio [5]: 32 ± 7
- Tissue distribution, Blood [6]: 0.09 ± 0.02 % IA/g
- Tissue distribution, Bone [6]: < 0.10 % IA/g
- Tissue distribution, Heart [6]: < 0.10 % IA/g
- Tissue distribution, Intestines [6]: < 0.10 % IA/g
- Tissue distribution, Kidneys [6]: 2.4 ± 0.5 % IA/g
- Tissue distribution, LNCaP tumor [6]: 9.5 ± 1.1 % IA/g
- Tissue distribution, Liver [6]: 0.57 ± 0.09 % IA/g
- Tissue distribution, Lung [6]: 0.14 ± 0.03 % IA/g
- Tissue distribution, Muscle [6]: < 0.10 % IA/g
- Tissue distribution, Salivary glands [6]: < 0.10 % IA/g
- Tissue distribution, Spleen [6]: 0.24 ± 0.04 % IA/g
- Tissue distribution, Stomach [6]: < 0.10 % IA/g
- Tumor-to-blood ratio [6]: 105 ± 14
- Tumor-to-kidney ratio [6]: 4.2 ± 0.7
- Tumor-to-liver ratio [6]: 17 ± 2
- Tissue distribution, Blood (LNCaP model, 48 h p.i., 1.0 nmol, listed as [177Lu]Lu-Ibu-DAB-PSMA): < 0.10 % IA/g
